Measurements published in patent US20050009837A1, “Modulators of lipid metabolism and methods of use” (City of Hope, priority 2003, published 2005).

Legend:
[1] = tested on: SRE reporter (FAS proximal promoter); assay: SRE reporter (FAS proximal promoter-luciferase) assay in CV-1 cells; type: cell-based
Procedure: Since LXR regulates SREBP-1c expression, LXR also should regulate activities downstream of SREBP-1c. To test this, CV-1 cells were transiently transfected with as in Example 6, but with the SRE or the SREm reporter, SREBP-1c-dependent reporter constructs consisting of the FAS proximal promoter linked to the luciferase gene. […] See Wang et al., Mol. Cell 3:543-553, 1999, the disclosures of which are hereby incorporated by reference. Cells then were treated as in Example 6 with the indicated compounds, Clotrimazole or 25-hydroxycholesterol (25-OH cholesterol). 25-OH cholesterol is known to repress the synthesis of SREBP-1c and is therefore used to eliminate the effects of this transcription factor on the FAS promoter (SRE).

[2] = tested on: CV-1 cells; assay: Cytotoxicity in transfected CV-1 cells; conditions: T0901317 100 nM; Clotrimazole, S883417, S100250 10 μM; approximately 40 hours
Procedure: (§1) Synthetic compounds were screened in an effort to find more specific LXR inhibitors. CV-1 cells were maintained and transfected using known methods. Forman et al., Cell 81: 687-693, 1995. CV-1 cells were transiently transfected with Gal-hLXRα, the RXR LBD, the UASGx4 TK Luc reporter and CMX-β-gal as an internal control, either in standard or in lipid-stripped serum. After transfection, cells were treated for approximately 40 hours with phenol red-free DMEM-FBS containing the indicated compounds at the following concentrations: T0901317 (100 nM), Clotrimazole (10 μM), S883417(10 μM) and S100250 (10 μM), unless otherwise specified. After exposure to ligand, the cells were harvested and assayed for luciferase and β-galactosidase activity. The luciferase activity was normalized to the internal β-galactosidase control (reporter activity).

[3] = molecular target: T1, LXRβ (Homo sapiens, UniProt P55055); assay: Transient transfection assay Gal-LXRβ + RXR LBD, UASGx4 TK Luc reporter, CV-1 cells; type: cell-based; conditions: 10 μM; for repression of LXRβ activity: approximately 40 hours, lipid-stripped serum; for less effective than Clotrimazole in repressing LXRβ: relative to Clotrimazole
T1 construct: expressed in transfected cells; host or cells: CV-1 cells
T1 sequence (P55055 222-460 limits assumed): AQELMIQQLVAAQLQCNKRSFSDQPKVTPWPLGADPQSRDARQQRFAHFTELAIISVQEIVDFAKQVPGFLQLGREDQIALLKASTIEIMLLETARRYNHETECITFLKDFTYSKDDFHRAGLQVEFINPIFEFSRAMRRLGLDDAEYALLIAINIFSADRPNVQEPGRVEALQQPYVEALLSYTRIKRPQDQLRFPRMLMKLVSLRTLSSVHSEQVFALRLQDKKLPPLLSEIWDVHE
T1 sequence (P19793 227-458 partner limits assumed): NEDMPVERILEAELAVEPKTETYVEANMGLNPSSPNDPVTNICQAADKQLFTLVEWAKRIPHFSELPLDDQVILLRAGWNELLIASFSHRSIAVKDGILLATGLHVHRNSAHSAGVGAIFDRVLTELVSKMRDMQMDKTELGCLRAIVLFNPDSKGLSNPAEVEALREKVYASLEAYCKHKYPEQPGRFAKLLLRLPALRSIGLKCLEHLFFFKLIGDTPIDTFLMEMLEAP
Procedure: as §1
(§2) The ability of these compounds to repress LXRα and LXRβ was compared by transfecting CV-1 cells with either the RXR LBD alone or the RXR LBD together with either Gal-LXRα or Gal-LXRβ.
(§3) Transfections were performed as described above, with increasing concentrations of Clotrimazole.

[4] = molecular target: T2, LXRα-RXR heterodimers and receptor interaction domains of coactivator SRC1 (Homo sapiens, UniProt Q13133); assay: LXR-coactivator association, VP-L-hLXRα / L-hRXRα / GAL4-SRC1 in CV-1 cells; type: cell-based; conditions: 20 μM, coactivator GAL4-SRC1, CV-1 cells
T2 construct: expressed in transfected cells; host or cells: CV-1 cells
T2 sequence (Q13133 209-447 limits assumed): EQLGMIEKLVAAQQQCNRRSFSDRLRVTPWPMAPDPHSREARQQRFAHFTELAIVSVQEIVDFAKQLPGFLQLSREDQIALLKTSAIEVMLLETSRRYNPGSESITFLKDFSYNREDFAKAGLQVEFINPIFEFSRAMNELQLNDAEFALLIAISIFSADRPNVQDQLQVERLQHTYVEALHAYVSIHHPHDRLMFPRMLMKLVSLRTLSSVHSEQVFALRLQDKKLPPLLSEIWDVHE
T2 sequence (P19793 227-458 partner limits assumed): T1 sequence (P19793 227-458 partner limits assumed)
Procedure: (§4) CV-1 cells were grown in DMEM supplemented with 10% resin-charcoal stripped fetal bovine serum, 50 U/ml penicillin G and 50 μg/ml streptomycin sulfate at 37° C. in 5% CO2. Cells were plated to 50-80% confluence one day prior to transfection using phenol red-free DMEM-FBS. The cells were transfected by lipofection using N-[1-(2,3-dioleoyloxy)propyl]-N,N,N-ammonium methyl sulfate according to manufacturer's instructions (Boehringer Mannheim).
(§5) Genes encoding the following full-length proteins, which are suitable for use in the studies described herein, were cloned into pCMX: human RXRα (Gene Bank accession X52773) and human LXRα (GenBank accession U22662). The cells were transfected with CMX-βgal and luciferase constructs. The CMX-βGal construct contained the ligand binding domain of human RXR (hRXRα) and the ligand binding domain of human LXRα (hLXRα) as indicated in FIG. 1. The luciferase reporter construct (LXREx3 TK-Luc) contained the herpes virus thymidine kinase promoter (−105/+51) linked to three copies of the response element LXRE. After transfection, the cells were treated with 20 μM of a synthetic azole test compound or vehicle alone for 40 hours in phenol red-free DMEM-FBS.
VP-L-hLXRα contains the transactivation domain of Herpes VP16, linked to the LBD of human LXRα, L-hRXRα is the LBD of human RXRα. UASGx4 TK-Luc was the reporter gene, and the assay additionally included the coactivator GAL4-SRC1. Treatment with 20 μM azole compound as indicated was able to inhibit interactions between LXRα-RXR heterodimers and the receptor interaction domains from the coactivator SRC1.

[5] = molecular target: T3, ligand binding domain of LXRα-RXR heterodimers (Homo sapiens, UniProt Q13133); assay: LXR ligand binding domain mediated activity, UASGx4 TK-Luc reporter in CV-1 cells; type: cell-based; conditions: 20 μM
T3 construct: expressed in transfected cells; host or cells: CV-1 cells
T3 sequence (Q13133 209-447 limits assumed): T2 sequence (Q13133 209-447 limits assumed)
T3 sequence (P19793 227-458 partner limits assumed): T1 sequence (P19793 227-458 partner limits assumed)
Procedure: as §4
as §5, with “DMEM-FBS. After exposure to the candidate antagonist compounds, cells were harvested and assayed for luciferase and β-galactosidase activity.” for “DMEM-FBS.”
The reporter gene was UASGx4 TK-Luc.

[6] = molecular target: T4, LXRα (Homo sapiens, UniProt Q13133); assay: Transient transfection assay Gal-hLXRα + RXR LBD, UASGx4 TK Luc reporter, CV-1 cells; type: cell-based; conditions: 10 μM; for repression of LXRα activity: approximately 40 hours, lipid-stripped serum; for less effective than Clotrimazole in repressing LXRα: relative to Clotrimazole
T4 construct: expressed in transfected cells; host or cells: CV-1 cells
T4 sequence (Q13133 209-447 limits assumed): T2 sequence (Q13133 209-447 limits assumed)
T4 sequence (P19793 227-458 partner limits assumed): T1 sequence (P19793 227-458 partner limits assumed)
Procedure: as §1, §2, §3

[7] = molecular target: T5, human LXRα (Homo sapiens, UniProt Q13133); assay: Full-length hLXRα/hRXRα LXREx3 TK-Luc reporter assay in transfected CV-1 cells; type: cell-based; conditions: 20 μM, 40 hours
T5 construct: expressed in transfected cells; host or cells: CV-1 cells
T5 sequence (Q13133 1-447): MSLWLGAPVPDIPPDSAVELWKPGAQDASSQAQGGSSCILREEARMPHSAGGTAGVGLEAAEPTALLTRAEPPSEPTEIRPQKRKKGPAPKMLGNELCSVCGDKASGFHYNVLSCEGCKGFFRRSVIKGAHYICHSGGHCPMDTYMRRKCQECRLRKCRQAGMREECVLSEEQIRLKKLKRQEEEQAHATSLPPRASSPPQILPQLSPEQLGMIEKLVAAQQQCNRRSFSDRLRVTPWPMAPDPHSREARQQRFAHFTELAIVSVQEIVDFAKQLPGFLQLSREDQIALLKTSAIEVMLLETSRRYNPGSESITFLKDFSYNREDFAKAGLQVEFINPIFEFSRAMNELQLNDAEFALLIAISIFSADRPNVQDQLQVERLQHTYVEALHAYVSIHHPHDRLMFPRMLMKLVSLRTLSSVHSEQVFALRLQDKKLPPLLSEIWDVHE
T5 sequence (P19793 1-462 partner): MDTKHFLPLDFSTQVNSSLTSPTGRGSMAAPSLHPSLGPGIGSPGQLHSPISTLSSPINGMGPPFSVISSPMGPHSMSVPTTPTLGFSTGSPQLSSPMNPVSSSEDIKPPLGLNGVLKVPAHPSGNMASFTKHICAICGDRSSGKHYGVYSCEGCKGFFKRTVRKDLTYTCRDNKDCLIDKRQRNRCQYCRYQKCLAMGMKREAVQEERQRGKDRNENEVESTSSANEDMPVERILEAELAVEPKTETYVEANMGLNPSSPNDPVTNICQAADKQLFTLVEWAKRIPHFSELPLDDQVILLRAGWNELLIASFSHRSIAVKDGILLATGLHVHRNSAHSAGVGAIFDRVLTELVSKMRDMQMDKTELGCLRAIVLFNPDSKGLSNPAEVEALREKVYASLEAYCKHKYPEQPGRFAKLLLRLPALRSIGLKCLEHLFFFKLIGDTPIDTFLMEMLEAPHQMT
Procedure: as §4, §5

Row | Structure (SMILES) | LXRα induction of SRE reporter activity ([1]; LXRα co-transfected (3-fold increase)) | LXRβ induction of SRE reporter activity ([1]; LXRβ co-expression (almost 2-fold increase)) | activity of reporter containing mutated SRE ([1]; SREm reporter) | repression of SRE reporter ([1]; absence of LXR) [%] | cytotoxicity [2] | repression of LXRβ activity [3] | less effective than Clotrimazole in repressing LXRβ [3] | inhibition of LXR-coactivator association [4] | inhibition of constitutive activation by the LXRα-RXR ligand binding domain (UASGx4 TK-Luc) [5] | repression of LXRα activity [6] | less effective than Clotrimazole in repressing LXRα [6] | antagonism of constitutive activation mediated by LXR (hLXRα activity, LXREx3 TK-Luc) [7]
1 | C[C@H](CCCC(C)(C)O)[C@H]1CC[C@H]2[C@@H]3CC=C4C[C@@H](O)CC[C@]4(C)[C@H]3CC[C@]12C [25-OH cholesterol, 25-hydroxycholesterol] | prevented this induction | prevented this induction | no significant effects | 50 | – | – | – | – | – | – | – | –
2 | c1ccc(-c2cncn2C(c2ccccc2)(c2ccccc2)c2ccccc2)cc1 [S100250] | – | – | – | – | No cytotoxicity | repressed | approximately 50% | inhibition of LXR-coactivator association | inhibit constitutive activation | repressed | approximately 50% | antagonize the constitutive activation mediated by LXR
3 | Cl.FC(F)(F)c1cccc(C(c2ccccc2)(c2ccccc2)n2ccnc2)c1 [S883417] | – | – | – | – | No cytotoxicity | repressed | approximately 50% | inhibition of LXR-coactivator association | inhibit constitutive activation | repressed | approximately 50% | antagonize the constitutive activation mediated by LXR
4 | CC(=O)N1CCN(c2ccc(OCC3COC(Cn4ccnc4)(c4ccc(Cl)cc4Cl)O3)cc2)CC1 (stereo not drawn) [ketonazole] | – | – | – | – | – | – | – | – | – | – | – | inactive
